Patent US10759783B2, “Biaryl inhibitors of Bruton'S tyrosine kinase” (BIOGEN MA INC., priority 2013, dated 2020)

What was measured:
BTK enzyme = target: T1, BTK enzyme (Homo sapiens, UniProt Q06187); test: In vitro BTK kinase assay: BTK-POLYGAT-LS assay; type: biochemical; conditions: ATP 10 μM, read-out: IC50 (10uMATP)
T1 construct: purchased Upstate 14-552
Outline: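 Human BTK activity was measured with final 10 μM ATP and 100 nM polyGAT substrate in pH 7.5 Tris buffer with 10 mM MgCl2, DTT, Triton X-100 and casein.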

[1] = target: BTK (phospho-BTK) in human whole blood (Homo sapiens, UniProt Q06187); test: In vitro PD assay in human whole blood (pBTK assay)
Sequence of BTK (phospho-BTK) in human whole blood (Q06187 whole entry): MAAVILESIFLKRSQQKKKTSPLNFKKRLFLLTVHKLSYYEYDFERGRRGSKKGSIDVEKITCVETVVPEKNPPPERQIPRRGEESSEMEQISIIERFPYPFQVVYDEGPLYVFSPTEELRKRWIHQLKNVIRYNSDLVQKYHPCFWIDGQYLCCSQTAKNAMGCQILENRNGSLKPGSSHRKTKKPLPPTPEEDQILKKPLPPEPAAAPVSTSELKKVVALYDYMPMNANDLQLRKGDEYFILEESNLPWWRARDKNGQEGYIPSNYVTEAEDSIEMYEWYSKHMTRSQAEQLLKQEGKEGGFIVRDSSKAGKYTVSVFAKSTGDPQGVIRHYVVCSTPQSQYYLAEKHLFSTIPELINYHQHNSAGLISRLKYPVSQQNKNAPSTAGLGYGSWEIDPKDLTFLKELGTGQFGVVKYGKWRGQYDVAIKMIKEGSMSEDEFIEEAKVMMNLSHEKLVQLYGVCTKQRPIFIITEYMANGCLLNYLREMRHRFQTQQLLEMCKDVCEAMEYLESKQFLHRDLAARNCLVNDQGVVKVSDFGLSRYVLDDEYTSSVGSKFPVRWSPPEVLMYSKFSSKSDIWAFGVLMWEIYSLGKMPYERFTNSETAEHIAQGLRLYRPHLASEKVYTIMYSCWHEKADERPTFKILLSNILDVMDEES

T1 sequence (Q06187 whole entry): as above

| SMILES | IC50 (BTK enzyme) | IC50 [1] |
| --- | --- | --- |
| CC(C)OC1CN(C(=O)NC2CCN(C=O)Cc3cc(-c4ccnc(Nc5cnn(C)c5)n4)ccc32)C1 (stereo not shown) [Example I-329, N-[2-formyl-8-[2-[(1-methylpyrazol-4-yl)amino]pyrimidin-4-yl]-1,3,4,5-tetrahydro-2-benzazepin-5-yl]-3-isopropoxy-azetidine-1-carboxamide] | < 10 nM | < 500 nM |
| CC(C)(C)OC1CN(C(=O)NC2CCCCc3cc(-c4cc(Nc5cc6n(n5)CCOC6)ncn4)ccc32)C1 (stereo not shown) [Example I-332, 3-tert-butoxy-N-[2-[6-(6,7-dihydro-4H-pyrazolo[5,1-c][1,4]oxazin-2-ylamino)pyrimidin-4-yl]-6,7,8,9-tetrahydro-5H-benzo[7]annulen-5-yl]azetidine-1-carboxamide] | < 10 nM | < 500 nM |
| CC(C)(C)OC1CN(C(=O)NC2CCCCc3cc(-c4ccnc(Nc5cnn([C@H]6CCOC6)c5)n4)ccc32)C1 (stereo partly drawn) [Example I-334, 3-tert-butoxy-N-[2-[2-[[1-[(3S)-tetrahydrofuran-3-yl]pyrazol-4-yl]amino]pyrimidin-4-yl]-6,7,8,9-tetrahydro-5H-benzo[7]annulen-5-yl]azetidine-1-carboxamide] | < 10 nM | < 500 nM |
| CC(C)OC1CN(C(=O)NC2CCCOc3cc(-c4ccnc(Nc5cnn(C)c5)n4)ccc32)C1 (stereo not shown) [Example I-335, 3-isopropoxy-N-[8-[2-[(1-methylpyrazol-4-yl)amino]pyrimidin-4-yl]-2,3,4,5-tetrahydro-1-benzoxepin-5-yl]azetidine-1-carboxamide] | < 10 nM | < 500 nM |
| CC(C)(O)Cn1cc(Nc2nccc(-c3ccc4c(c3)CCCCC4NC(=O)N3CC(OC(C)(C)C)C3)n2)cn1 (stereo not shown) [Example I-337, 3-tert-butoxy-N-[2-[2-[[1-(2-hydroxy-2-methyl-propyl)pyrazol-4-yl]amino]pyrimidin-4-yl]-6,7,8,9-tetrahydro-5H-benzo[7]annulen-5-yl]azetidine-1-carboxamide] | < 10 nM | < 500 nM |

Second part, the molecule after the results:

| IC50 (BTK enzyme) | IC50 [1] | SMILES |
| --- | --- | --- |
| < 10 nM | < 500 nM | CCn1cc(Nc2nccc(-c3ccc4c(c3)CCCCC4NC(=O)N3CCC(C(C)(C)C)C3)n2)cn1 (stereo not shown) [Example I-328] |
| < 10 nM | < 500 nM | CC(C)(C)C1CCN(C(=O)NC2CCCCc3cc(-c4ccnc(Nc5cnn(C6CCOCC6)c5)n4)ccc32)C1 (stereo not shown) [Example I-330, 3-tert-butyl-N-[2-[2-[(1-tetrahydropyran-4-ylpyrazol-4-yl)amino]pyrimidin-4-yl]-6,7,8,9-tetrahydro-5H-benzo[7]annulen-5-yl]pyrrolidine-1-carboxamide] |
| < 10 nM | < 500 nM | CCOC1CN(C(=O)NC2CCCCc3cc(-c4ccnc(Nc5cnn(C)c5)n4)ccc32)C1 (stereo not shown) [Example I-331, 3-ethoxy-N-[2-[2-[(1-methylpyrazol-4-yl)amino]pyrimidin-4-yl]-6,7,8,9-tetrahydro-5H-benzo[7]annulen-5-yl]azetidine-1-carboxamide] |
| < 10 nM | < 500 nM | CC(C)OC1CN(C(=O)NC2CCCCc3cc(-c4ccnc(Nc5cnn([C@@H]6CCOC6)c5)n4)ccc32)C1 (stereo partly drawn) [Example I-333, 3-isopropoxy-N-[2-[2-[[1-[(3R)-tetrahydrofuran-3-yl]pyrazol-4-yl]amino]pyrimidin-4-yl]-6,7,8,9-tetrahydro-5H-benzo[7]annulen-5-yl]azetidine-1-carboxamide] |
| < 10 nM | < 500 nM | CC(C)OC1CN(C(=O)NC2CCCCc3cc(-c4ccnc(Nc5cnn(CC(C)(C)O)c5)n4)ccc32)C1 (stereo not shown) [Example I-336, N-[2-[2-[[1-(2-hydroxy-2-methyl-propyl)pyrazol-4-yl]amino]pyrimidin-4-yl]-6,7,8,9-tetrahydro-5H-benzo[7]annulen-5-yl]-3-isopropoxy-azetidine-1-carboxamide] |
| < 10 nM | < 500 nM | CC(C)OC1CN(C(=O)NC2CCCCc3cc(-c4ccnc(Nc5cnn([C@H]6CCOC6)c5)n4)ccc32)C1 (stereo partly drawn) [Example I-338, 3-isopropoxy-N-[2-[2-[[1-[(3S)-tetrahydrofuran-3-yl]pyrazol-4-yl]amino]pyrimidin-4-yl]-6,7,8,9-tetrahydro-5H-benzo[7]annulen-5-yl]azetidine-1-carboxamide] |
